Legend:
[1] = test system: RBCs of healthy whole blood; assay: RBC deformability (Elongation Index, LORRCA ektacytometry), ex vivo TBHP oxidation of healthy whole blood; type: cell-based, human; conditions: healthy donor 2, single amino acid treatments
Text: Whole blood from healthy African American and/or Hispanic donors was obtained from Research Blood Components, LLC based on the following donor selection criteria: Adult age (between 18 and 50 years), normal BMI (<30), and absence of other confounding clinical conditions. Whole blood from SCD donors were obtained from BioIVT based on the following donor selection criteria: Patients with genotypes HbSS, HbSC, HbS/β^0 and at least 1-2 months gap since last blood transfusion. Whole blood was shipped on ice on the same day as blood draw. Upon receipt, the blood sample was aliquoted and stored in the refrigerator until used for studies.
RBC deformability measurements were conducted with the Laser Optical Rotational Red Cell Analyzer (LORRCA) from RR Mechatronics in a temperature-controlled environment (37° C.). Briefly, an even layer of RBCs suspended in polyvinylpyrrolidone (PVP) is subjected to shear stress gradient (0.3 to 30 Pa) through two concentric cylinders and the resulting changes in RBC shape or deformability are measured by a laser beam diffraction pattern. The captured images of RBC shape in response to increasing shear stress are then analyzed by the LORRCA program to calculate Elongation Index (EI).
Healthy RBCs have higher deformability ≥0.5 EI and SCD RBCs have lower deformability or EI values as studied by LORRCA ektacytometry in the field. […] The induced hemolysis model in this disclosure involves use of tert-butyl hydroperoxide (TBHP) to lower EI of RBCs.
The ex vivo hemolysis study disclosed here involves overnight treatment of whole blood with vehicle as a control and specific amino acids followed by rapid oxidation (5 min) with TBHP. Method for oxidation of whole blood with tert-butyl hydroperoxide has been used in prior literature (Diederich L, et al, Front Physiol. 2018 May 11; 9:332). RBC deformability or shape changes are then measured with LORRCA ektacytometry.
Whole blood aliquots stored in the fridge were brought up to room temperature while gently shaking on a rocker at low speed for an hour to ensure gradual and uniform suspension of red blood cells prior to deformability measurements. Vehicle control used in the study was 1× Dulbecco's […]) and amino acids disclosed herein were added (at either final 10× or 2.5 mM concentration as indicated) to corresponding vehicle and amino acid treatment conditions. The samples were then incubated overnight at 37° C. The next day, 25 μl of whole blood was taken from each treatment condition and added to 5 mL Elon ISO viscous solution from RR Mechatronics. The sample was inverted 15-20 times to ensure proper mixing of the treated RBCs with the Elon ISO solution followed by loading the sample on LORRCA and capturing RBC deformability or shape measurements over the applied shear gradient. The remaining whole blood treatments were returned to incubator (37° C.) until deformability measurements were completed for all treatments. To the remaining whole blood treatment samples, TBHP solution (5.0-6.0 M in Decane, Sigma) was added at 2.5 mM final concentration from a 100 mM freshly prepared stock and incubated for further 5 min at 37° C. 25 μl of this TBHP-treated sample was immediately removed at the end of the 5 min incubation and added to the Elon ISO solution for RBC deformability measurement after oxidation. Included in the Tables 13-15 are EI measurements at ½ EImax shear stress 1.69 Pa and EImax shear stress 30 Pa from these studies and FIG. 1 captures EI measurements for all shear stress points for the indicated treatment conditions.

[2] = test system: IL-6; assay: Secreted IL-6 in HLMVEC treated with TNF-α (FirePlex); type: cell-based, human; conditions: HLMVEC + 0.5 ng/mL TNF-α, 24 h; amino acids 20x HMDB, Nac/Cit/Car 5 mM as bracketed
Outline: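 Primary human lung microvascular endothelial cells, after overnight attachment, were switched to medium with amino acid levels mimicking SCD patient blood, plus 0.5 ng/mL TNF-α with or without amino acid treatments at 20× mean physiological plasma concentrations. Supernatant IL-6 measured by FirePlex immunoassay, interpolated from a standard curve.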

[3] = test system: ICAM-1; assay: ICAM-1 cell integrated intensity in HLMVEC treated with TNF-α (immunofluorescence); type: cell-based, human; conditions: HLMVEC + 0.5 ng/mL TNF-α, 24 h; amino acids 20x HMDB, Nac/Cit/Car 5 mM as bracketed
Outline: (§1)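 Primary human lung microvascular endothelial cells, 24 h in medium with SCD-like amino acid profile plus 0.5 ng/mL TNF-α, with or without amino acids at 20× mean plasma level. Fixed, immunostained for ICAM-1 and VCAM-1; integrated intensity per cell by high-content imaging.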

[4] = test system: VCAM-1; assay: VCAM-1 cell integrated intensity in HLMVEC treated with TNF-α (immunofluorescence); type: cell-based, human
Outline: as §1

[5] = test system: HLMVEC; assay: META-rank score, composite of VCAM1, ICAM1 and IL6 in the HLMVEC model; type: cell-based, human; conditions: HLMVEC + TNF-α; lower score = more optimal; 20x HMDB / 5 mM
Description: The ability of single amino acids and combinations to simultaneously impact these phenotypes was measured by a META-rank score (Tables 17 and 18). META-rank score is a composite measure that considers the optimal impact on all 3 phenotypes (e.g. decrease VCAM1, ICAM1, and IL6) in the HLMVEC model.

[6] = Pharmacokinetics following oral dose administration to male Sprague-Dawley rats (plasma amino acids, LC-MS); conditions: analyte after oral gavage of RCitNacQCarLHKVS
Description: A pharmacokinetic (PK) analysis was performed on plasma concentrations of various combinations of amino acid compounds administered by oral gavage to male Sprague-Dawley rats. Four animals were dosed with RCitNacQCarLHKVS, a test article comprising ten amino acid components: arginine, citrulline, N-acetylcysteine (Nac), glutamine, carnitine, leucine, histidine, lysine, valine, and serine (Table 19). Animals were fasted for 2 hours prior to dose administration. Plasma samples were taken immediately pre-dose and 0.5, 1, 2, 3, 4, and 5 hours post-dose.
Bioanalysis of collected plasma samples for amino acid content was performed at Axcella Health using an LC-MS method (Section 2.1). Bioanalytical data were analyzed using noncompartmental analysis with PHOENIX® WINNONLIN® (v8.1).
An LC/MS method utilizing HILIC chromatography and high-resolution mass spectrometry was used to quantify amino acids in rat plasma. […]
PK parameters of test article components were determined from individual rat plasma concentration-time data by employing a noncompartmental approach using Phoenix WINNONLIN® (Version 8.1) software. […] This program analyzed data using the standard methods described by Gibaldi and Perrier (see M. Gibaldi and D. Perrier, Pharmacokinetics, 2nd edition, New York: Marcel-Dekker, Inc.; 1982.).

SMILES: C[N+](C)(C)CC(O)CC(=O)[O-] (centres unmarked) [Car, carnitine]
- EI over vehicle control, both ½ EImax and EImax [1]: higher than the vehicle
- Secreted IL6 Median [2]: −0.022
- ICAM-1 Cell Integrated Intensity Median [3]: −0.013
- VCAM-1 expression in HLMVEC ([4]; 0.5 ng/mL TNF-α, amino acids at 20× HMDB, 24 hours): moderate effect
- VCAM-1 Cell Integrated Intensity Median ([4]; HLMVEC + 0.5 ng/mL TNF-α, 24 h, amino acids 20x HMDB, Nac/Cit/Car 5 mM as bracketed): −0.017
- Meta-Rank (Table 18) [5]: 12.5
- Metarank (Table 17) [5]: 24
- plasma concentration over the five-hour time course [6]: continuously increased

Source: patent publication US20230000808A1, “COMPOSITIONS AND METHODS EXCLUDING OR WITH REDUCED GLUTAMINE FOR THE TREATMENT OF HEMOGLOBINOPATHIES AND THALASSEMIAS” (AXCELLA HEALTH INC., priority 2019, published 2023)
